Values after ≈ are worked out from the molar mass of the structure shown.
Test system: Escherichia coli ATCC 25922
Assay: Minimal Inhibitory Concentration (MIC) determination, broth microdilution
Assay type: cell-based
Conditions: strain Escherichia coli ATCC 25922, broth microdilution per CLSI M07-A10, 18-24 hours at 35±2° C., lowest concentration for complete growth inhibition; for MIC: ATCC25922
Method: Minimal Inhibitory Concentration (MIC) Determination:
The MIC of antibacterial compounds against multiple species and strains was determined using the broth microdilution method according to M07-A10 Clinical and Laboratory Standards Institute (CLSI) guidelines, using the appropriate broth medium. In short, the compound plates were prepared by dispensing 100 μL of each stock solution in the first well of a 96 well microtiter plate (MTP) at a concentration 100-fold higher than the final concentration desired in broth. Eleven serial 2-fold dilutions of the highest concentration were made in DMSO for new compounds and in water (or appropriate solution) for reference compounds [2]. 1 μL of each well was transferred in a new MTP, which served as the test plate by subsequent inoculation. This bacterial suspension was prepared from strains that were first sub-cultured on agar plates and incubated for 18-24 hours as appropriate. Following incubation, the inoculum was prepared from isolated colonies and adjusted to 0.5 McFarland turbidity standard (1 to 2×10^8 Colony Forming Units (CFU)/mL) in 0.9% saline. The bacterial suspension was then diluted 1:200 in appropriate sterile medium and within 15 minutes 100 μL/well were dispensed. Negative controls (lack of bacterial cells) and growth control wells (lack of compound) were included in all plates. MTPs were incubated for 18-24 hours at 35±2° C. in ambient air. The MIC value of each compound, expressed as μg/mL, was determined as the lowest concentration required for complete growth inhibition (no visible growth). • [1] CLSI (2015) Methods for dilution antimicrobial susceptibility tests for bacteria that grow aerobically; Approved Standard, Tenth Edition. CLSI Document M7-A10 (ISBN 1-56238-987-4). Wayne, PA: Clinical and Laboratory Standards Institute, 19087, USA. • [2] CLSI (2017) Performance Standards for Antimicrobial Susceptibility Testing; Twenty-Fifth Informational Supplement. CLSI Document M100-S27, CLSI, Wayne, Pennsylvania 19087, USA.
Table 1 provides the Minimal Inhibitory Concentrations (MIC) in micrograms per millilitre of the compounds of present invention obtained against the strain Escherichia coli ATCC 25922.

| SMILES | MIC | Escherichia coli growth inhibition MIC |
| --- | --- | --- |
| C[C@H](C(=O)Nc1cc(F)c2c(c1)CC(F)(CNCCC1CN(c3cnc4c(n3)NC(=O)CO4)C(=O)O1)C2)N(C)C (stereo partly drawn) [Example 33, (2R)-N-[2,7-difluoro-2-[[2-[2-oxo-3-(3-oxo-4H-pyrazino[2,3-b][1,4]oxazin-6-yl)oxazolidin-5-yl]ethylamino]methyl]indan-5-yl]-2-(dimethylamino)propanamide] | 0.5 µg/mL (≈ 0.894 µM) |  |
| Cc1nc(NC(=O)[C@@H](C)N(C)C)cc2c1CC(CNCCC1CN(c3cnc4c(n3)NC(=O)CO4)C(=O)O1)C2 (stereo partly drawn) [Example 28, (2R)-2-(dimethylamino)-N-[1-methyl-6-[[2-[2-oxo-3-(3-oxo-4H-pyrazino[2,3-b][1,4]oxazin-6-yl)oxazolidin-5-yl]ethylamino]methyl]-6,7-dihydro-5H-cyclopenta[c]pyridin-3-yl]propanamide] | 0.5 µg/mL (≈ 0.928 µM) |  |
| O=C(O)C(F)(F)F.O=C1COc2ncc(N3CC4(CCN(CC5Cc6cc(NC(=O)[C@H]7NCC[C@@H]7O)cc(F)c6C5)CC4)OC3=O)nc2N1 (stereo partly drawn) [Example 54, (2S,3S)—N-[7-Fluoro-2-[[2-oxo-3-(3-oxo-4H-pyrazino[2,3-b][1,4]oxazin-6-yl)-1-oxa-3,8-diazaspiro[4.5]decan-8-yl]methyl]indan-5-yl]-3-hydroxy-pyrrolidine-2-carboxamide; 2,2,2-trifluoroacetic Acid] | 0.25 µg/mL |  |
| CN1CCC[C@@H]1C(=O)Nc1cc(F)c2c(c1)CC(CNCCC1CN(c3cnc4c(n3)NC(=O)CO4)C(=O)O1)C2 (stereo partly drawn) [Example 14, (2R)-N-[7-fluoro-2-[[2-[2-oxo-3-(3-oxo-4H-pyrazino[2,3-b][1,4]oxazin-6-yl)oxazolidin-5-yl]ethylamino]methyl]indan-5-yl]-1-methyl-pyrrolidine-2-carboxamide] | 0.125 µg/mL (≈ 0.226 µM) |  |
| CC(C)(O)C(=O)Nc1cc(C#N)c2c(c1)CC(CNCCC1CN(c3cnc4c(n3)NC(=O)CO4)C(=O)O1)C2 (centres unmarked) [Example 20] | 0.5 µg/mL (≈ 0.934 µM) |  |
| CN(CC(=O)Nc1cc(F)c2c(c1)CC(CNCCC1CN(c3cnc4c(n3)NC(=O)CO4)C(=O)O1)C2)C1CC1 (centres unmarked) [Example 13] | 1 µg/mL (≈ 1.81 µM) |  |
| O=C1COc2ncc(N3CC4(CCN(CC5Cc6c(F)cc(NC(=O)[C@@H]7C[C@@H](O)CN7)c(F)c6C5)CC4)OC3=O)nc2N1 (stereo partly drawn) [Example 52, (2S,4R)—N-[4,7-Difluoro-2-[[2-oxo-3-(3-oxo-4H-pyrazino[2,3-b][1,4]oxazin-6-yl)-1-oxa-3,8-diazaspiro[4.5]decan-8-yl]methyl]indan-5-yl]-4-hydroxy-pyrrolidine-2-carboxamide] | 0.25 µg/mL (≈ 0.417 µM) |  |
| C[C@H](C(=O)Nc1cc(F)c2c(c1)CC(CNCC[C@H]1CN(c3cnc4c(n3)NC(=O)CO4)C(=O)O1)C2)N(C)C (single isomer, unassigned) [Example 68] | 0.125 µg/mL (≈ 0.231 µM) |  |
| CC(C(=O)Nc1cc(F)c2c(c1)CC(CNCC[C@@H]1CN(c3cnc4c(n3)NC(=O)CO4)C(=O)O1)C2)N1CCC1 (some centres unmarked) [Example 16] | 0.125 µg/mL (≈ 0.226 µM) |  |
| O=C1COc2ncc(N3CC4(CCN(CC5Cc6cc(NC(=O)[C@@H]7C[C@H](O)CN7)cc(F)c6C5)CC4)OC3=O)nc2N1 (stereo partly drawn) [Example 57, (2S,4S)—N-[7-Fluoro-2-[[2-oxo-3-(3-oxo-4H-pyrazino[2,3-b][1,4]oxazin-6-yl)-1-oxa-3,8-diazaspiro[4.5]decan-8-yl]methyl]indan-5-yl]-4-hydroxy-pyrrolidine-2-carboxamide] | ≤ 0.06 µg/mL |  |
| C[C@H](C(=O)Nc1cc(F)c2c(c1)C(O)C(CNCC[C@@H]1CN(c3cnc4c(n3)NC(=O)CO4)C(=O)O1)C2)N(C)C (stereo partly drawn) [Example 66, (2R)-2-(Dimethylamino)-N-[7-fluoro-3-hydroxy-2-[[2-[(5R)-2-oxo-3-(3-oxo-4H-pyrazino[2,3-b][1,4]oxazin-6-yl)oxazolidin-5-yl]ethylamino]methyl]indan-5-yl]propanamide] | 4 µg/mL (≈ 7.17 µM) |  |
| N[C@H](CO)C(=O)Nc1cc(F)c2c(c1)CC(CNCCC1CN(c3cnc4c(n3)NC(=O)CO4)C(=O)O1)C2 (stereo partly drawn) [Example 38, (2R)-2-amino-N-[7-fluoro-2-[[2-[2-oxo-3-(3-oxo-4H-pyrazino[2,3-b][1,4]oxazin-6-yl)oxazolidin-5-yl]ethylamino]methyl]indan-5-yl]-3-hydroxy-propanamide] | 0.5 µg/mL (≈ 0.944 µM) |  |
| CO[C@H]1CN[C@H](C(=O)Nc2cc(F)c3c(c2)CC(CNCCC2CN(c4cnc5c(n4)NC(=O)CO5)C(=O)O2)C3)C1 (stereo partly drawn) [Example 44, (2S,4R)-N-[7-fluoro-2-[[2-[2-oxo-3-(3-oxo-4H-pyrazino[2,3-b][1,4]oxazin-6-yl)oxazolidin-5-yl]ethylamino]methyl]indan-5-yl]-4-methoxy-pyrrolidine-2-carboxamide] | 1 µg/mL (≈ 1.76 µM) |  |
| CO[C@@H]1C[C@@H](C(=O)Nc2cc(F)c3c(c2)CC(CNCCC2CN(c4cnc5c(n4)NC(=O)CO5)C(=O)O2)C3)N(C)C1 (stereo partly drawn) [Example 17, (2S,4R)-N-[7-fluoro-2-[[2-[2-oxo-3-(3-oxo-4H-pyrazino[2,3-b][1,4]oxazin-6-yl)oxazolidin-5-yl]ethylamino]methyl]indan-5-yl]-4-methoxy-1-methyl-pyrrolidine-2-carboxamide] | 1 µg/mL (≈ 1.71 µM) |  |
| COC1(CNCC2CN(c3cnc4c(n3)NC(=O)CO4)C(=O)O2)Cc2c(F)cc(NC(=O)[C@@H](C)N(C)C)c(F)c2C1 (some centres unmarked) [Example 31] | 4 µg/mL (≈ 6.95 µM) |  |
| C[C@H](C(=O)Nc1cc(C#N)c2c(c1)CC(O)(CNCCC1CN(c3cnc4c(n3)NC(=O)CO4)C(=O)O1)C2)N(C)C (stereo partly drawn) [Example 34, (2R)-N-[7-cyano-2-hydroxy-2-[[2-[2-oxo-3-(3-oxo-4H-pyrazino[2,3-b][1,4]oxazin-6-yl)oxazolidin-5-yl]ethylamino]methyl]indan-5-yl]-2-(dimethylamino)propanamide] | 4 µg/mL (≈ 7.08 µM) |  |
| C[C@@]1(C(=O)Nc2cc(F)c3c(c2)CC(CN2CCC4(CC2)CN(c2cnc5c(n2)NC(=O)CO5)C(=O)O4)C3)C[C@@H](O)CN1 (single isomer, unassigned) [Example 73] |  | 0.5 µg/mL |
| O=C(CN1CC2CC2C1)Nc1cc(F)c2c(c1)CC(CNCCC1CN(c3cnc4c(n3)NC(=O)CO4)C(=O)O1)C2 (centres unmarked) [Example 12, 2-(3-azabicyclo[3.1.0]hexan-3-yl)-N-[7-fluoro-2-[2-[2-oxo-3-(3-oxo-4H-pyrazino[2,3-b][1,4]oxazin-6-yl)oxazolidin-5-yl]ethylaminomethyl]indan-5-yl]acetamide] | 0.125 µg/mL (≈ 0.221 µM) |  |
| C[C@H](C(=O)Nc1cc(F)c2c(c1F)CC(O)(CNCC1CN(c3cnc4c(n3)NC(=O)CO4)C(=O)O1)C2)N(C)C (some centres unmarked) [Example 30] | 1 µg/mL (≈ 1.78 µM) |  |
| CC(C)(O)C(=O)Nc1cc(F)c2c(c1)CC(CNCCC1CN(c3cnc4c(n3)NC(=O)CO4)C(=O)O1)C2 (centres unmarked) [Example 18, N-[7-fluoro-2-[[2-[2-oxo-3-(3-oxo-4H-pyrazino[2,3-b][1,4]oxazin-6-yl)oxazolidin-5-yl]ethylamino]methyl]indan-5-yl]-2-hydroxy-2-methyl-propanamide] | 0.25 µg/mL (≈ 0.473 µM) |  |
| O=C1COc2ncc(N3CC4(CCN(CC5Cc6cc(NC(=O)[C@H]7C[C@@H](O)CN7)cc(F)c6C5)CC4)OC3=O)nc2N1 (stereo partly drawn) [Example 55, (2R,4R)—N-[7-Fluoro-2-[[2-oxo-3-(3-oxo-4H-pyrazino[2,3-b][1,4]oxazin-6-yl)-1-oxa-3,8-diazaspiro[4.5]decan-8-yl]methyl]indan-5-yl]-4-hydroxy-pyrrolidine-2-carboxamide] | 0.125 µg/mL (≈ 0.215 µM) |  |
| C[C@@H](C(=O)Nc1cc(F)c2c(c1)CC(CN1CCC3(CC1)CN(c1cnc4c(n1)NC(=O)CO4)C(=O)O3)C2)N(C)C (stereo partly drawn) [Example 51, (2S)-2-(Dimethylamino)-N-[7-fluoro-2-[[2-oxo-3-(3-oxo-4H-pyrazino[2,3-b][1,4]oxazin-6-yl)-1-oxa-3,8-diazaspiro[4.5]decan-8-yl]methyl]indan-5-yl]propanamide] | 0.125 µg/mL (≈ 0.22 µM) |  |
| N[C@]1(C(=O)Nc2cc(F)c3c(c2)CC(CNCCC2CN(c4cnc5c(n4)NC(=O)CO5)C(=O)O2)C3)CCOC1.O=C(O)C(F)(F)F (stereo partly drawn) [Example 40, (3R)-3-amino-N-[7-fluoro-2-[[2-[2-oxo-3-(3-oxo-4H-pyrazino[2,3-b][1,4]oxazin-6-yl)oxazolidin-5-yl]ethylamino]methyl]indan-5-yl]tetrahydrofuran-3-carboxamide; 2,2,2-trifluoroacetic acid] | 0.25 µg/mL |  |
| C[C@H](C(=O)Nc1cc(F)c2c(c1)CC(CNCC[C@H]1CN(c3cnc4c(n3)NC(=O)CO4)C(=O)O1)C2)N(C)C (single isomer, unassigned) [Example 69] |  | 0.125 µg/mL |
| Cc1ncc(C(=O)Nc2cc(F)c3c(c2)CC(CNCCC2CN(c4cnc5c(n4)NC(=O)CO5)C(=O)O2)C3)o1 (centres unmarked) [Example 15, N-[7-fluoro-2-[[2-[2-oxo-3-(3-oxo-4H-pyrazino[2,3-b][1,4]oxazin-6-yl)oxazolidin-5-yl]ethylamino]methyl]indan-5-yl]-2-methyl-oxazole-5-carboxamide] | 0.25 µg/mL (≈ 0.453 µM) |  |
| CN(C)C(C)(C)C(=O)Nc1cc(F)c2c(c1)CC(CN1CCC3(CC1)CN(c1cnc4c(n1)NC(=O)CO4)C(=O)O3)C2 (centres unmarked) [Example 6] | 0.25 µg/mL (≈ 0.43 µM) |  |

From US20240254140A1, “COMPOUNDS AND THEIR USE IN THE TREATMENT OF BACTERIAL INFECTION” (Hoffmann-La Roche Inc., priority 2021, published 2024)
